Where a SMILES comes first, the peptide text is derived from it. Bridges are numbered along the chain shown (N, C = ends). [ ]: non-standard residue; d: D form. The star is where a group is joined. Ileψ(thiazoline)Cys = CC[C@H](C)[C@H](N)C1=N[C@H](C(=O)*)CS1; dOrn = NCCC[C@@H](N)C(=O)O
Columns and labels:
[1] = system: Vancomycin-resistant enterococcus (VRE) (ATCC 51299); assay: Spot on lawn, MHA plate: killing / diameter of clearance; type: cell-based; design: key to antibacterial activity: “+” indicates antibacterial activity with complete clearing; “−” indicates no antibacterial activity; details: 10 μL spot; for antibacterial activity: 24 to 48 hours at 37° C.
MRSA (ATCC BAA44) = assay: as above; type: cell-based, Staphylococcus aureus; details: for antibacterial activity: 24 to 48 hours at 37° C.
[2] = system: CRE NDM-1 MDR (ATCC BAA 2146); assay: as above; type: cell-based, Enterobacteriaceae; design: key to antibacterial activity: “+” indicates antibacterial activity with complete clearing; “−” indicates no antibacterial activity; details: for antibacterial activity: 24 to 48 hours at 37° C.
[3] = system: multi-drug resistant Acinetobacter baumannii (ATCC 1797); assay: as above; type: cell-based; details: 10 μL spot; for antibacterial activity: 24 to 48 hours at 37° C.
[4] = system: multi-drug resistant Pseudomonas aeruginosa (ATCC 2114); assay: as above; type: cell-based; details: 10 μL spot; for antibacterial activity: 24 to 48 hours at 37° C.
[5] = system: Escherichia coli (O157:H7) (ATCC 51657); assay: as above; type: cell-based; design: key to antibacterial activity: “+” indicates antibacterial activity with complete clearing; “−” indicates no antibacterial activity; details: for antibacterial activity: 24 to 48 hours at 37° C.
[6] = system: Stenotrophomonas maltophilia (ATCC 13637); assay: as above; type: cell-based; design: key: “+” indicates antibacterial activity with complete clearing; “−” indicates no antibacterial activity; details: S. maltophilia (ATCC 13637); 10 μL spot; 24 to 48 hours at 37° C.
[7] = system: Mycobacterium abscessus (ATCC 19977); assay: as above; type: cell-based; design: key: “+” indicates antibacterial activity with complete clearing; “−” indicates no antibacterial activity; details: 10 μL spot, 24 to 48 hours at 37° C.
Streptococcus pyogenes = assay: as above; type: cell-based; design: key to antibacterial activity: “+” indicates antibacterial activity with complete clearing; “−” indicates no antibacterial activity; details: for killing of Streptococcus pyogenes / antibacterial activity: 10 μL spot; for killing of Streptococcus pyogenes: incubation period of 1 day; for antibacterial activity: 24 to 48 hours at 37° C.; for killing of S. pyogenes: after 7 days of incubation
[8] = system: multi-drug resistant Burkholderia cepacia (ATCC 10856); assay: as above; type: cell-based; details: for killing of multi-drug resistant Burkholderia cepacia: 10 μL, overnight at 37° C. (FIG. 63); for antibacterial activity: 10 μL spot, 24 to 48 hours at 37° C.
Yesenia pestis (Kimo 6) = type: cell-based, Yersinia pestis; details: 10 μL spot; for efficacy against Yesenia pestis (Kimo 6), comparison with antibiotics: incubation period of 1 day; for antibacterial activity: Yersinia pestis KIM6, 24 to 48 hours at 37° C.
[9] = system: Bacillus subtilis (ATCC 6633); assay: Spot on lawn, MHA plate: killing / diameter of clearance; type: cell-based; details: 10 μL spot; incubation period of 1 day
MCR-1 E. coli (AR 0350) = assay: Spot on lawn, MHA plate: killing; type: cell-based; details: 10 μL drops; 1 day at 37° C.
Description: An overnight growth of MCR-1 E. coli (AR 0350) was made in MHB, and was spread undiluted onto a MHA plate.

[10] = system: multi-drug resistant E. coli (AR 0348); assay: Spot on lawn, MHA plate: killing; type: cell-based; details: 10 μL; 1 day at 37° C.
Experimental: An overnight growth of multi-drug resistant E. coli (AR 0348) was made in MHB. The samples were diluted 1:1000, and spread onto a MHA plate.

[11] = system: multi-drug resistant E. coli (AR 0346); assay: Spot on lawn, MHA plate: killing; type: cell-based; details: 10 μL; 3 days at 37° C.
Experimental: An overnight growth of multi-drug resistant E. coli (AR 0346) was made in MHB. The samples were diluted 1:1000, and spread onto a MHA plate.

[12] = system: multi-drug-resistant E. coli CDC AR0493; assay: Spot on lawn, MHA plate: killing; type: cell-based; details: 10 μL spot, 24 to 48 hours at 37° C.
[13] = system: Shigella flexneri 85W 2332; assay: Spot on lawn, MHA plate: killing; type: cell-based; details: 10 μL spot, 24 to 48 hours at 37° C.
[14] = system: Salmonella enteriditis CDC AR0496; assay: Spot on lawn, MHA plate: killing; type: cell-based; details: 10 μL spot, 24 to 48 hours at 37° C.
MRSA BAA-1717 (USA 300) = assay: Spot on lawn, MHA plate: killing / diameter of clearance; details: 10 μL; overnight at 37° C. (FIG. 63)
red blood cells = assay: Hemolysis on blood agar plate; details: 5 μL spotted; refrigerated overnight
[15] = 10 μL spot, incubation period of 1 day
[16] = CRE NDM-1 (MDR) ATCC BAA-2146, 10 μL spot
[17] = CRE NDM-1 MDR (ATCC BAA 2146), 10 μL spot
[18] = E. Coli (O157:H7) (ATCC 51657), 10 μL spot
[19] = Mycobacterium abscessus ATCC19977
[20] = Streptococcus pyogenes 85W 1180
[21] = Burkholderia cepacia ATCC 10856

With C/C(=C\C(=O)OCCCCCCCCC(=O)O)C[C@@H]1OC[C@H](C[C@@H]2O[C@H]2[C@@H](C)[C@H](C)O)[C@@H](O)[C@H]1O [Mupirocin] the antibacterial activity ([1]; VRE (ATCC 51299)) was “−”, the antibacterial activity ([1]; VRE) was “−” and the “killing of MRSA” value (MRSA (ATCC BAA44); 10 μL spot, incubation period of 1 day (FIG. 52)) was “killed”. The antibacterial activity (MRSA (ATCC BAA44); MRSA (ATCC BAA44), 10 μL spot) was “+”, the antibacterial activity (MRSA (ATCC BAA44); MRSA ATCC BAA-44, 10 μL spot) was “+” and the “killing of MRSA” value (MRSA (ATCC BAA44); after 4 days of incubation) was “only formulations that killed”. The “regrowth of MRSA” value (MRSA (ATCC BAA44); after 4 days of incubation) was “not observed”, the “killing of CRE NDM-1 MDR” value [2, 15] was “killed” and the antibacterial activity [2, 16] was “−”. For the same compound, the antibacterial activity [2, 17] was “−”, the “killing of CRE NDM-1 MDR” value ([2]; after 5 days of incubation) was “only formulations that killed” and the “regrowth of CRE NDM-1 MDR” value ([2]; after 5 days of incubation) was “not observed”. For the same compound, the “killing of A. baumannii” value ([3]; incubation period of 1 day (FIG. 54)) was “killed”, the antibacterial activity ([3]; A. Baumannii MDR (ATCC 1797)) was “−” and the antibacterial activity ([3]; A. baumannii MDR ATCC 1797) was “−”. For the same compound, the “killing of multi-drug resistant Pseudomonas aeruginosa” value ([4]; incubation period of 1 day (FIG. 55)) was “killed”, the antibacterial activity ([4]; P. aeruginosa MDR (ATCC 2114)) was “+” and the antibacterial activity ([4]; P. aeruginosa MDR ATCC 2114) was “+”. For the same compound, the “killing of Escherichia coli (O157:H7)” value [5, 15] was “killed”, the antibacterial activity [5, 18] was “+” and the antibacterial activity ([5]; E. coli O157:H7, 10 μL spot) was “+”. The “killing of Escherichia coli (O157:H7)” value ([5]; after 5 days of incubation) was “only formulations that killed”, the “regrowth of Escherichia coli (O157:H7)” value ([5]; after 5 days of incubation) was “not observed” and the antibacterial activity [6] was “−”. For the same compound, the antibacterial activity ([7]; M. abscessus (ATCC 19977)) was “−”, the antibacterial activity [7, 19] was “−” and the “killing of Streptococcus pyogenes” value (Streptococcus pyogenes) was “killed”. For the same compound, the antibacterial activity (Streptococcus pyogenes; S. pyogenes) was “+”, the antibacterial activity (Streptococcus pyogenes; [20]) was “+” and the “killing of S. pyogenes” value (Streptococcus pyogenes) was “further killed”. For the same compound, the “killing of multi-drug resistant Burkholderia cepacia” value [8] was “killed”, the antibacterial activity ([8]; B. cepacia (ATCC 10856)) was “+” and the antibacterial activity [8, 21] was “+”. The “efficacy against Yesenia pestis (Kimo 6), comparison with antibiotics” value (Yesenia pestis (Kimo 6)) was “more effective than MM8”, the antibacterial activity (Yesenia pestis (Kimo 6)) was “+” and the “killing of Bacillus subtilis” value [9] was “killed”. For the same compound, the “killing of MCR-1 E. coli (AR 0350; colisitin-resistance only)” value (MCR-1 E. coli (AR 0350)) was “fully killed”, the “killing of multi-drug resistant E. coli (AR 0348)” value [10] was “fully killed” and the “killing of multi-drug resistant E. coli (AR 0346)” value [11] was “fully killed”. For the same compound, the antibacterial activity [12] was “+”, the antibacterial activity [13] was “+” and the antibacterial activity [14] was “+”. For the same compound, the “killing of MRSA BAA-1717 (USA 300)” value (MRSA BAA-1717 (USA 300)) was “killed”.

For Neomycin, the antibacterial activity ([1]; VRE (ATCC 51299)) was “−”, the antibacterial activity ([1]; VRE) was “−” and the antibacterial activity (MRSA (ATCC BAA44); MRSA (ATCC BAA44), 10 μL spot) was “−”. The antibacterial activity (MRSA (ATCC BAA44); MRSA ATCC BAA-44, 10 μL spot) was “−”, the antibacterial activity [2, 16] was “−” and the antibacterial activity [2, 17] was “−”. For the same compound, the antibacterial activity ([3]; A. Baumannii MDR (ATCC 1797)) was “−”, the antibacterial activity ([3]; A. baumannii MDR ATCC 1797) was “−” and the antibacterial activity ([4]; P. aeruginosa MDR (ATCC 2114)) was “−”. For the same compound, the antibacterial activity ([4]; P. aeruginosa MDR ATCC 2114) was “−”, the “killing of Escherichia coli (O157:H7)” value [5, 15] was “killed” and the antibacterial activity [5, 18] was “+”. The antibacterial activity ([5]; E. coli O157:H7, 10 μL spot) was “+”, the “killing of Escherichia coli (O157:H7)” value ([5]; after 5 days of incubation) was “only formulations that killed” and the “regrowth of Escherichia coli (O157:H7)” value ([5]; after 5 days of incubation) was “not observed”. For the same compound, the antibacterial activity [6] was “+”, the antibacterial activity ([7]; M. abscessus (ATCC 19977)) was “−” and the antibacterial activity [7, 19] was “−”. For the same compound, the “killing of Streptococcus pyogenes” value (Streptococcus pyogenes) was “killed”, the “regrowth of Streptococcus pyogenes colonies in treated area” value (Streptococcus pyogenes; FIG. 59, 7 days) was “colonies invaded” and the antibacterial activity (Streptococcus pyogenes; S. pyogenes) was “+”. The antibacterial activity (Streptococcus pyogenes; [20]) was “+”, the “killing of S. pyogenes” value (Streptococcus pyogenes) was “further killed” and the “killing of multi-drug resistant Burkholderia cepacia” value [8] was “killed”. For the same compound, the antibacterial activity ([8]; B. cepacia (ATCC 10856)) was “−”, the antibacterial activity [8, 21] was “−” and the “efficacy against Yesenia pestis (Kimo 6), comparison with antibiotics” value (Yesenia pestis (Kimo 6)) was “more effective than MM8”. For the same compound, the antibacterial activity (Yesenia pestis (Kimo 6)) was “−”, the “killing of Bacillus subtilis” value [9] was “killed” and the antibacterial activity [12] was “−”.

O=C(OOC(=O)c1ccccc1)c1ccccc1 [benzoyl peroxide] was tested, and the blood hemolysis (red blood cells) was “complete hemolysis”.

With CC[C@H](C)[C@H](N)C1=N[C@H](C(=O)N[C@@H](CC(C)C)C(=O)N[C@H](CCC(=O)O)C(=O)N[C@H](C(=O)N[C@H]2CCCCNC(=O)[C@H](CC(N)=O)NC(=O)[C@@H](CC(=O)O)NC(=O)[C@H](Cc3cnc[nH]3)NC(=O)[C@@H](Cc3ccccc3)NC(=O)[C@H]([C@@H](C)CC)NC(=O)[C@@H](CCCN)NC2=O)[C@@H](C)CC)CS1 [Bacitracin] ({Ileψ(thiazoline)Cys}-L[dE]IK[dOrn]I[dF]H[dD]N; lactam 4-C) the “killing of VRE” value ([1]; incubation period of 1 day) was “killed”, the antibacterial activity ([1]; VRE (ATCC 51299)) was “−” and the antibacterial activity ([1]; VRE) was “−”. The antibacterial activity (MRSA (ATCC BAA44); MRSA (ATCC BAA44), 10 μL spot) was “−”, the antibacterial activity (MRSA (ATCC BAA44); MRSA ATCC BAA-44, 10 μL spot) was “−” and the antibacterial activity [2, 16] was “−”. The antibacterial activity [2, 17] was “−”, the antibacterial activity ([3]; A. Baumannii MDR (ATCC 1797)) was “−” and the antibacterial activity ([3]; A. baumannii MDR ATCC 1797) was “−”. The antibacterial activity ([4]; P. aeruginosa MDR (ATCC 2114)) was “−”, the antibacterial activity ([4]; P. aeruginosa MDR ATCC 2114) was “−” and the antibacterial activity [5, 18] was “−”. For the same compound, the antibacterial activity ([5]; E. coli O157:H7, 10 μL spot) was “−”, the antibacterial activity [6] was “−” and the antibacterial activity ([7]; M. abscessus (ATCC 19977)) was “−”. The antibacterial activity [7, 19] was “−”, the antibacterial activity (Streptococcus pyogenes; S. pyogenes) was “−” and the antibacterial activity (Streptococcus pyogenes; [20]) was “−”. The antibacterial activity (Yesenia pestis (Kimo 6)) was “−” and the antibacterial activity [12] was “−”.

In the case of O=C(O)c1ccccc1O [2% salicylic acid, salicylic acid], the blood hemolysis (red blood cells) is reported as “little to no hemolysis”.
